{
  "source": "patent US9445999B2",
  "about": "“Process for preparing carrier particles for dry powders for inhalation” (CHIESI FARMACEUTICI S.p.A., priority 2010, dated 2016)",
  "key": {"[1]": {"experiment": "Particle size distribution (PSD) by laser diffraction with a Malvern apparatus", "type": "physicochemical", "details": "lactose 90-150 microns + 0.5% w/w MgSt, CYCLOMIX at given speed and time; mean of three determinations", "source_text": "In general terms, the particle size of the particles is quantified by measuring a characteristic equivalent sphere diameter, known as volume diameter, by laser diffraction.\nIn the present application, the particle size interval is expressed in terms of […]. Otherwise, the particle size distribution is expressed in terms of: i) the volume median diameter (VMD) which corresponds to the diameter of 50 percent by weight or volume respectively, of the particles, e.g. d(v0.5); and ii) the volume diameter (VD) in microns of 10% and 90% of the particles, respectively, e.g. d(v0.1) and d(v0.9).\niv) the particle size distribution (PSD) by laser diffraction with a Malvern apparatus; the water contact angle by the sessile drop method wherein the powder is in the form of a disc obtained by compaction (compressed powder disc method) according to the procedure reported above in the description;\nThe results are expresses as mean of three determinations. In Table 2, the water contact angle values and the corresponding extent of surface coating calculated from the Cassie and Baxter equation are also reported. Said equation was applied to the experimental values of the penultimate column of Table 2 using the reference values for magnesium state alone and alpha-lactose monohydrate alone. The variability in terms of S.D. of the experimental values is always less than ±10%, typically of ±5%."}, "[2]": {"experiment": "Water contact angle by sessile drop (compressed powder disc method); extent of surface coating from the Cassie and Baxter equation", "type": "physicochemical", "details": "0.5% w/w MgSt carriers", "source_text": "The extent to which magnesium stearate coats the surface of the lactose particles may be determined by first measuring the water contact angle, and then applying the equation known in the literature as Cassie and Baxter, cited at page 338 of Colombo I et al., Il Farmaco, 1984, 39(10), pp. 328-341, which is incorporated herein by reference in its entirety, and reported below. cos θmixture=fMgSt cos θMgst+flactore cos θlactose where\nfMgst and flactore are the surface area fractions of magnesium stearate and of lactose;\nθMgSt is the water contact angle of magnesium stearate;\nθlactose is the water contact angle of lactose; and\nθmixture are the experimental contact angle values. […]\nIf a fully automated procedure is not available, the base (b) and the height (h) of the drop are measured on the display using a mobile reading scale, then the water contact angles (WCA) are calculated by applying the following formula: WCA=[arctg2h/b]×2×180/[…]\nTypically the values are calculated as a mean of three different measurements taken at room temperature. […]\nThe results are expresses as mean of three determinations. In Table 2, the water contact angle values and the corresponding extent of surface coating calculated from the Cassie and Baxter equation are also reported. […]"}},
  "data": [
    {"smiles": "O.OC[C@H]1O[C@@H](O[C@H]2[C@H](O)[C@@H](O)[C@@H](O)O[C@@H]2CO)[C@H](O)[C@@H](O)[C@H]1O", "note": "[α-lactose monohydrate, alpha-lactose monohydrate]", "values": [
      {"measurement": "PSD d(v0.1)", "setting": "[1]", "result": 96.4},
      {"measurement": "PSD d(v0.5)", "setting": "[1]", "result": 132.2},
      {"measurement": "PSD d(v0.9)", "setting": "[1]", "result": 182.3},
      {"measurement": "Water Contact Angle", "setting": "[2]; compressed powder disc, sessile drop", "result": 8.35, "unit": "E"},
      {"measurement": "Extent of Surface Coating", "setting": "[2]; calculated from the Cassie and Baxter equation", "result": 0, "unit": "%"}
    ]}
  ]
}
